# Data as given in patent US20130252890A1, “6,7-DIHYDRO-5H-BENZO[7]ANNULENE DERIVATIVES, PROCESS FOR PREPARATION THEREOF, PHARMACEUTICAL PREPARATIONS COMPRISING THEM, AND THE USE THEREOF FOR PRODUCTION OF MEDICAMENTS” (BAYER INTELLECTUAL PROPERTY GMBH, priority 2010, published 2013).
# “Also recorded” adds a separate entry of the source.
# Key:
# [1] = molecular target: T1, oestrogen receptor (ER) (Homo sapiens, UniProt P03372); test: Anti-oestrogenic action in MVLN cells (inhibition of estradiol-induced luciferase); assay type: cell-based; conditions: inhibition of estradiol-induced luciferase signal, value of Ex. 44 is a mean value, read-out: Antioestrogenic action in vitro: MVLN transactivation antagonism IC50
# T1 construct: These MVLN cells express, along with the functional oestrogen receptor (ER), a reporter construct; endogenous in cells; host or cells: MVLN cells (MCF7 derivative carrying a luciferase reporter construct)
# T1 sequence (P03372 1-595): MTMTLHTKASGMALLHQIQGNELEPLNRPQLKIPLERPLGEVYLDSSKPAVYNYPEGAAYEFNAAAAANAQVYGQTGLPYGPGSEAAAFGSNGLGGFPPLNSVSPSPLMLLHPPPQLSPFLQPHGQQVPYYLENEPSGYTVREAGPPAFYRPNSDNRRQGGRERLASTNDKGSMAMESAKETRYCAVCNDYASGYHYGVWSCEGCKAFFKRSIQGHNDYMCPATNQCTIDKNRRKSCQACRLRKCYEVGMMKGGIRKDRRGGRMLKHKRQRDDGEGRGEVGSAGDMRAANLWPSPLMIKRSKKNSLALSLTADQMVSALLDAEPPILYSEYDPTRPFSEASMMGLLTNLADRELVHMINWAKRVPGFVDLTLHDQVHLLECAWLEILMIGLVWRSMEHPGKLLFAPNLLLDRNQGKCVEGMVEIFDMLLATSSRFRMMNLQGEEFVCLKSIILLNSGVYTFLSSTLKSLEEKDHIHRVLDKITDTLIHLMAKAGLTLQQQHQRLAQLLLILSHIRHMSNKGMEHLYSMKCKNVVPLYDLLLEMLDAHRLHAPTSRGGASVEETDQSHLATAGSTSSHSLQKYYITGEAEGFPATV
# Method in brief: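 Inhibition of estradiol-driven luciferase expression was measured with compounds co-applied alongside oestrogen. Reporter system: MCF7-derived MVLN cells expressing endogenous functional ER and an ER-responsive luciferase construct.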
# [2] = tested on: endometriosis lesions; test: Endometriosis model in the rat (autologous transplantation); assay type: in vivo
# Excerpt: Using intact adult female rats, experimental endometriosis was induced in the autologous transplantation model based on Vernon M. W. and Wilson E. A., 1985 (Fertil Steril. 44(5):684-694). A uterine horn was removed from animals that were exclusively in oestrus, the myometrium was separated from the endometrium and biopsies with dimensions of 4×4 mm were obtained from the endometrial tissue. Two uterine fragments were transplanted onto the inside of the abdominal wall (peritoneum) and two uterine fragments were transplanted onto the mesenterium of the same animal (4 fragments per animal). After 21 days the animals with endometriosis were laparotomized, and the size of the transplants was determined. The animals were treated after laparotomy and then daily in the morning with the stated dosages of the selected claimed substances by subcutaneous administration. Finally, 28 days after the start of treatment (49 days after transplantation), all the animals were laparotomized again and the size of the lesion was measured and was correlated with the size before the start of treatment.
# [3] = tested on: bone mass and uterus weight; test: Antagonistic action on bone mass and uterus weight in hormonally intact rats; assay type: in vivo, Sprague-Dawley rats; conditions: adult hormonally intact rats, oral 1-10 mg/kg, 2 months
# Protocol: Application was oral, in peanut oil/ethanol. The animals were killed on the day after the last application and the tibia and uteri were removed. The uteri were weighed, fixed and prepared for optional histological investigations. Bone density was determined on long bones by pQCT (quantitative computed tomography), once before the treatment, once on the day of autopsy. The variations for this parameter were shown correspondingly between these two reference points (values below 100 correspond to a decrease in bone mass density, values above 100 to an increase). The control group was a group of animals from which the ovaries had been removed (OVX) (due to ovariectomy, as expected there is a decrease in density of the trabecular bone in the measured range over the period of the experiment). All other animals underwent a SHAM-OP (a sham operation) (without the ovaries being removed) in addition to the application treatment. The changes in relative uterus weights served as the reference for the anti-oestrogenic action.
compound,measurement,setting,value
"CN(CCCCCCC1=C(c2cc(F)cc(F)c2)CCCc2cc(O)ccc21)CCCCS(=O)(=O)CCCC(F)(F)F [Example 44, 8-(3,5-Difluorophenyl)-9-[6-(methyl{4-[(4,4,4-trifluorobutyl)sulphonyl]butyl}amino)hexyl]-6,7-dihydro-5H-benzo[7]annulen-3-ol]",IC50,[1],5.6 nM
same,peripheral (blood) estradiol level of the treated animals,[2]; animals of the FIG. 2C experiment (FIG. 2D),does not lead to an increase in peripheral estradiol level above the physiological range; also recorded: None of the groups treated with example compound 44 in the stated dosages shows levels above or below the naturally occurring estradiol levels
same,"reduction of lesion sizes, independent experiment","[2]; rat, 0.3 mg/kg to 13 mg/kg, three dosages (FIG. 2C)",significant dose-dependent reduction of lesion sizes; also recorded: all three dosages lead to a significant reduction of the lesion
same,dosage with significant reduction in sizes of lesions,"[2]; rat, 28 days of treatment, 115 tested 0.1-1 mg/kg, 44 tested 0.3-10 mg/kg",≥ 1 mg/kg
same,reduction of lesion size,"[2]; rat, s.c. daily, 4 weeks (FIG. 2A, FIG. 2B)",significant dose-dependent reduction of lesion size
same,effect on relative uterus weight (anti-oestrogenic action),[3],dose-dependent anti-oestrogenic action on the uterus; also recorded: dose-dependent decrease
same,trabecular bone mass density of the tibia,[3],not reduced; also recorded: does not show a significant decrease in bone mass density at any of the tested dosages
